Measurements: patent publication US20180161314A1, “Methods for Treating Hyperuricemia and Related Diseases” (Ardea Biosciences, Inc., priority 2010, published 2018)
Read-outs that look alike come from different tables or passages of the source.

How the values were obtained:
[1] = tested on: hyperuricemic subjects with symptomatic gout; experiment: Pilot study of drug 1 versus placebo and open-label allopurinol in hyperuricemic subjects with symptomatic gout (Examples 1, 2, 20); format: in vivo, human
Procedure: Study Objectives • To compare the proportion of subjects whose sUA level is <6.0 mg/dL following 2 weeks of continuous treatment with drug 1 compared to allopurinol and placebo. • To evaluate the percent reduction from baseline in sUA levels following 2 weeks of continuous treatment with drug 1 in combination with allopurinol. • To evaluate the proportion of subjects whose sUA levels are <6.0 mg/dL, <5.0 mg/dL and <4.0 mg/dL at each visit. • To evaluate the absolute and percent reduction from baseline in sUA levels at each visit. • To evaluate the maximum percent reduction in sUA levels from baseline during the entire treatment period. • To evaluate percent change in 24-hour urine uric acid level from baseline to Day 15. • To evaluate the safety and tolerability of drug 1 in subjects with gout. • To evaluate the pharmacokinetics, safety and tolerability of drug 1 in combination with allopurinol in subjects with gout.
A randomized, double-blind, placebo-controlled, dose titration, safety and pharmacodynamics pilot study, in approximately 26 hyperuricemic subjects with symptomatic gout enrolled at 2-3 investigational sites in N America, of: • drug 1 versus placebo and open-label allopurinol (Cohort 1); and • drug 1 in combination with allopurinol versus continued allopurinol alone (Cohort 2)
Subjects are randomized 7 days prior to Day 1 in a double-blind fashion to receive drug 1, drug 1 matching placebo, or open-label allopurinol (Cohort 1) or drug 1 or drug 1 matching placebo in combination with allopurinol (Cohort 2).
To reduce the incidence of gout flares, colchicine 0.6 mg qd is administered to all subjects starting 14 days prior to the Baseline (Day 1) visit. Subjects continue colchicine administration throughout the Treatment Period, discontinuing at the End of Study visit (one week after the last dose of study medication).
Cohort 1 approx 20 subjects randomized in 2:1:1 ratio treatment groups—drug 1:placebo:allopurinol.
Subjects randomized to double-blind treatment: • approx 10 subjects randomized to receive drug 1 200 mg qd (4 drug 1 50 mg capsules/day) for one week, followed by drug 1 400 mg qd (8 drug 1 50 mg capsules/day) for one week. • 5 subjects randomized to receive drug 1 matching placebo qd for 2 weeks (week 1-4 drug 1 matching placebo capsules; week 2-8 drug 1 matching placebo capsules)
Subjects randomized to open-label treatment: • 5 subjects randomized to receive allopurinol 300 mg tablets qd for 2 weeks Cohort 2 approx 6 subjects randomized in 5:1 ratio treatment groups—drug+allopurinol:placebo+allopurinol
For Cohorts 1 and 2, subjects randomized to double-blind treatment take drug 1 or drug 1 matching placebo every 24 hours (±1 h) (morning dose) for a period of 2 weeks. For Cohort 1, subjects randomized to open-label treatment take allopurinol every 24 hours (±1 h) (morning dose) for a period of 2 weeks.
Subjects are requested to then drink approximately 240 mL of water 1-2 hours after dosing.
1. Male or post-menopausal or surgically sterile female. 2. 18-75 years of age. 3. Hyperuricemic, defined as: Cohort 1: Screening serum uric acid is ≥8 mg/dL Cohort 2: Screening serum uric acid is ≥10 mg/dL 4. Subject meets one or more of the 1977 American Rheumatism Association (ARA) criteria for the diagnosis of acute arthritis of primary gout. 5. Subject is willing and able to give informed consent and adhere to visit/protocol schedules.
Blood samples (4.5 mL) are collected and sUA levels determined at Screening (repeated as necessary prior to Day 1), Baseline (Day 1) (1 hour and 8 hours post-dose), Day 8 (trough, 1 hour and 8 hours post-dose), Day 9 (24 hours after Day 8 dose), and Day 14 (trough and 8 hours post-dose), Day 15 and End of Study. An additional sUA level is obtained on Day 7 for Cohort 2 subjects prior to the first dose of allopurinol.
Primary pharmacodynamics parameter is the proportion of subjects with serum uric acid <6.0 mg/dL following 2 weeks of treatment. […]

[2] = tested on: gout patients with hyperuricemia; format: in vivo; details: for Mean absolute sUA reduction / Mean sUA % change / Mean sUA level: ± SE; for % Response rate for sUA falling below 4 mg/dL / % Response rate for sUA falling below 5 mg/dL / % Response rate for sUA falling below 6 mg/dL: allopurinol 300 mg
Procedure: Study Objectives • To measure the effect of drug 1, alone and in combination with allopurinol, on serum urate concentration. • To evaluate the safety and tolerability of drug 1 in combination with allopurinol.
The study is open-label in gout patients with hyperuricemia, involving 2 panels of ˜10-12 patients per panel. The panels may be enrolled simultaneously.
Panel 1 receives a once-daily dose of allopurinol 300 mg alone for 7 days and for an additional 7 days in combination with a once-daily dose of drug 1 400 mg. Patients then receive 7 days of a once-daily dose of drug 1 400 mg alone. Panel 2 follows the same regimen as panel 1, at doses of allopurinol 300 mg and drug 1 600 mg.
• Day −10 to Day 28: colchicine prophylaxis; or • Day −7 to Day 28: colchicine prophylaxis (for patients not washing out from ULT) • Days 1-7: allopurinol 300 mg qd • Days 8-14: drug 1 400 mg qd+allopurinol 300 mg qd • Days 15-21: drug 1 400 mg qd
• Day −10 to Day 28: colchicine prophylaxis; or • Day −7 to Day 28: colchicine prophylaxis (for patients not washing out from ULT) • Days 1-7: allopurinol 300 mg qd • Days 8-14: drug 1 600 mg qd+allopurinol 300 mg qd • Days 15-21: drug 1 600 mg qd
Gout patients on a urate lowering therapy (ULT), have previously taken a ULT or who have never taken a ULT are eligible to participate. Screening procedures to determine patient eligibility are performed within approximately 14 days of the first dose of study drug (Day 1). Subjects currently on ULT wash-out for at least 10 days before Day 1, and begin colchicine (Colcry® 0.6 mg qd, URL Pharma) as prophylaxis for gout flares at the beginning of the wash-out period. Subjects not on ULT begin colchicine administration at least 7 days prior to Day 1. Patients intolerant of colchicine during the screening period are considered screen failures and not enrolled. Prophylactic administration of colchicine continues for 7 days after the last dose of study medication.
Eligible patients report to the study center early morning on Days −1, 7, 14, and 21 (or the afternoon/evening the day before). Serial blood samples are collected on Days −1, 7, 14, and 21. Study medication is administered to each patient and taken orally every morning with approximately 240 mL of water, at approximately the same time of the morning every day, and approximately 30 minutes after finishing a full breakfast (approximately 650 Kcal and 35% fat); the breakfast is standardized on Days −1 to 21.
Inclusion Criteria • Patient is male or post-menopausal or surgically sterile female. • Patient is 18-80 years of age. • Patient meets one or more criteria for the diagnosis of gout as per the American Rheumatism Association (ARA) Criteria for the Classification of Acute Arthritis of Primary Gout (Appendix B). • Patient sUA≥8 mg/dL at screening. • Patient willing and able to give informed consent and adhere to visit/protocol schedules • No clinically relevant abnormalities in blood pressure (BP), heart rate (HR), body temperature and respiratory rate as per Investigator's judgment.
Subject urate serum levels are recorded, and any safety concerns assessed (by adverse events, clinical laboratory test results, vital signs, 12-lead ECGs, and physical examinations). […] Urate serum concentrations are evaluated for treatment- and/or time-dependent changes relative to baseline (Day −1), and may be expressed both in standard units (mg/dL) and as changes from baseline (e.g., percent change, absolute change, maximal change, and time or day of maximal change).
Drug 1 was tested according to the protocol described in Example 21.
Serum urate levels were measured and absolute and % reduction levels from baseline calculated, for Allopurinol monotherapy, Drug 1 monotherapy and Allopurinol plus Drug 1 combination.

[3] = Drug 1 400 mg panel: allopurinol 300 mg qd days 1-7, combination days 8-14, drug 1 400 mg qd alone days 15-21
[4] = Drug 1 600 mg panel: allopurinol 300 mg qd days 1-7, combination days 8-14, drug 1 600 mg qd alone days 15-21

SMILES: Oc1ncnc2[nH]ncc12 [Allopurinol, 1H-pyrazolo[3,4-d]pyrimidin-4(2H)-one, reference compound]
- Responders Day 14 (those with sUA <6 mg/dL) ([1]; Cohort 1, Day 14, responders/subjects, drug 1 200 mg qd 1 week then 400 mg qd 1 week, allopurinol 300 mg qd 2 weeks): 5/5
- Adverse event ([1]; one subject on allopurinol 300 mg qd): hyperaldosteronemia
- Mean absolute sUA reduction [2, 3]: -3.1 ± 0.28 mg/dL
- Mean sUA % change [2, 3]: −32.2 ± 2.1%
- Mean sUA level [2, 3]: 6.5 ± 0.16 mg/dL
- % Response rate for sUA falling below 4 mg/dL ([2]; Drug 1 400 mg panel): 0%
- % Response rate for sUA falling below 5 mg/dL ([2]; Drug 1 400 mg panel): 0%
- % Response rate for sUA falling below 6 mg/dL ([2]; Drug 1 400 mg panel): 10%
- Mean absolute sUA reduction [2, 4]: -2.6 ± 0.26 mg/dL
- Mean sUA % change [2, 4]: −28.7 ± 2.4%
- Mean sUA level [2, 4]: 6.3 ± 0.31 mg/dL
- % Response rate for sUA falling below 4 mg/dL ([2]; Drug 1 600 mg panel): 0%
- % Response rate for sUA falling below 5 mg/dL ([2]; Drug 1 600 mg panel): 10%
- % Response rate for sUA falling below 6 mg/dL ([2]; Drug 1 600 mg panel): 30%
